# Assay results published in PubChem BioAssay (NCI).
# Where “and” joins values, the source holds several entries; their conditions need not be identical. Equal values may be shown once.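 Five compound concentrations were applied to cells in 96-well plates for 48 hours; endpoints were derived by simple linear interpolation of the resulting dose-response curve. GI50: concentration for 50% inhibition of growth. At the TGI there is no net growth.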
# Legend:
# Assay in all cases: growth of human tumour cells (NCI), 48 h
# HOP-62 NSCLC = tested on: HOP-62 NSCLC
# RPMI-8226 leukemia = tested on: RPMI-8226 leukemia
# SNB-75 CNS = tested on: SNB-75 CNS
# OVCAR-5 ovarian = tested on: OVCAR-5 ovarian
# HL-60(TB) leukemia = tested on: HL-60(TB) leukemia
# MOLT-4 leukemia = tested on: MOLT-4 leukemia
# SK-MEL-28 melanoma = tested on: SK-MEL-28 melanoma
# SK-OV-3 ovarian = tested on: SK-OV-3 ovarian
# SNB-19 CNS = tested on: SNB-19 CNS
# KM12 colon = tested on: KM12 colon
# EKVX NSCLC = tested on: EKVX NSCLC
Compound,TGI (HOP-62 NSCLC) [µM],TGI (RPMI-8226 leukemia) [µM],TGI (SNB-75 CNS),TGI (OVCAR-5 ovarian) [µM],TGI (HL-60(TB) leukemia) [µM],TGI (MOLT-4 leukemia) [µM],TGI (SK-MEL-28 melanoma) [µM],TGI (SK-OV-3 ovarian) [µM],TGI (SNB-19 CNS) [µM],TGI (KM12 colon) [µM],TGI (EKVX NSCLC),GI50 (RPMI-8226 leukemia) [µM],GI50 (SNB-75 CNS) [µM],GI50 (OVCAR-5 ovarian) [µM],GI50 (MOLT-4 leukemia) [µM],GI50 (SK-OV-3 ovarian) [µM],GI50 (SNB-19 CNS) [µM],GI50 (KM12 colon) [µM],GI50 (EKVX NSCLC) [µM]
O=[N+]([O-])C(=C/c1cccs1)/C(=C\c1cccs1)[N+](=O)[O-],5.39,1.14,> 95.2 µM,7.21,0.139,1.3,2.32,8.04,5.16,13.4,> 32.4 µM,,,,,,,,
CC(=O)Nc1ccc(Sc2nnc(NC(C)=O)s2)cc1,> 100,> 100,> 100 µM,> 100,> 100,> 100,> 100,> 100,> 100,> 100,> 100 µM,,,,,,,,
C=CCCCCCCCCC(=O)O,168,352,468 µM,351,231,265,322,294,362,107,255 µM,,,,,,,,
CCOC(=O)C(OP(=O)(OCC)OCC)C(F)(F)F (configuration not stated),> 100,> 100,> 100 µM,> 100,> 100,> 100,> 100,> 100,> 100,> 100,> 100 µM,,,,,,,,
CCN1CCC(O)(c2ccc(O)cc2)C(C(=O)c2ccc(O)cc2)C1 (configuration not stated),> 100,33.4,60.1 µM,35.6,> 100,46,31.7,> 100,> 100,45.4,51.1 µM,,,,,,,,
COc1cccc2c1C(=O)c1c(O)c3c(c(O)c1C2=O)C[C@@](O)(C(=O)CO)CC3OC1CC(NCCCC(OC(C)=O)OC(C)=O)C(O)C(C)O1 (some centres not stated),0.00461,0.000403,0.00403 µM and 0.000406 µM,0.701,0.0058,,0.00787,> 1,,0.000187,0.00618 µM and 0.00119 µM,< 0.0001,< 0.0001,0.000347,0.000123,0.000298,0.000202,< 0.0001,0.000305
